± gives the standard deviation of the averaged measurements.
Experiments:
[1] = test system: HSC1 (primary human Schwann cells); assay: % inhibition of CellTiter-Glo viability at highest tested concentration (72 h), relative to DMSO and benzethonium chloride controls; higher = more inhibition
Method in brief: (§1)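 For this screen, 384-well plates were preprinted with each compound at five concentrations in 10-fold steps and seeded with MPNST cell lines or primary human Schwann cells at 750–1000 cells per well. Incubation lasted 72 h at 37 °C, 5% CO2, and CellTiter-Glo ATP luminescence, scaled between vehicle and positive-control wells and averaged over duplicates where available, served as viability. Logistic fits with four parameters were applied. Relative IC50 (censored at the top concentration) and drug sensitivity score derive from these fits, and percent inhibition is at the top concentration.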

HS-PSS [2] = assay: as above
Method in brief: as §1

YST-1 [3] = assay: as above
Method in brief: as §1

S462 [4] = assay: as above
Method in brief: as §1

HS-Sch-2 [5] = assay: as above
Method in brief: as §1

ST8814 [6] = assay: as above
Method in brief: as §1

STS26T [7] = assay: as above
Method in brief: as §1

S1507-2 [8] = assay: as above
Method in brief: as §1

[9] = test system: HSC2 (primary human Schwann cells); assay: as above
Method in brief: as §1

[10] = test system: HSC1 (primary human Schwann cells); assay: drug sensitivity score (DSS, CellTiter-Glo viability, 72 h) (DSS (dimensionless)); higher = more sensitive; extreme values may be limits of the assay
Method in brief: as §1

HS-PSS [11] = assay: as above
Method in brief: as §1

YST-1 [12] = assay: as above
Method in brief: as §1

S462 [13] = assay: as above
Method in brief: as §1

HS-Sch-2 [14] = assay: as above
Method in brief: as §1

ST8814 [15] = assay: as above
Method in brief: as §1

STS26T [16] = assay: as above
Method in brief: as §1

S1507-2 [17] = assay: as above
Method in brief: as §1

[18] = test system: HSC2 (primary human Schwann cells); assay: as above
Method in brief: as §1

[19] = test system: HSC1 (primary human Schwann cells); assay: drug sensitivity score (DSS, CellTox-Green cytotoxicity, 72 h) (DSS (dimensionless)); higher = more cytotoxic; extreme values may be limits of the assay
Method in brief: (§2)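 MPNST cell lines and primary human Schwann cells were grown for 72 h at 37 °C in 384-well plates containing five 10-fold compound dilutions. CellTox-Green, added before seeding at a final 1:1000 dilution, gave fluorescence from DNA released by disrupted cells, and signals were scaled to vehicle and positive-control wells. Curves were fitted with a four-parameter logistic model. Drug sensitivity score and relative IC50 come from these fits, with IC50 censored at the top concentration.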

HS-PSS [20] = assay: as above
Method in brief: as §2

ST8814 [21] = assay: as above
Method in brief: as §2

STS26T [22] = assay: as above
Method in brief: as §2

S1507-2 [23] = assay: as above
Method in brief: as §2

[24] = test system: HSC2 (primary human Schwann cells); assay: as above
Method in brief: as §2

SMILES	% inhibition [1] [%]	% inhibition (HS-PSS [2]) [%]	% inhibition (YST-1 [3]) [%]	% inhibition (S462 [4]) [%]	% inhibition (HS-Sch-2 [5]) [%]	% inhibition (ST8814 [6]) [%]	% inhibition (STS26T [7]) [%]	% inhibition (S1507-2 [8]) [%]	% inhibition [9] [%]	drug sensitivity score [10]	drug sensitivity score (HS-PSS [11])	drug sensitivity score (YST-1 [12])	drug sensitivity score (S462 [13])	drug sensitivity score (HS-Sch-2 [14])	drug sensitivity score (ST8814 [15])	drug sensitivity score (STS26T [16])	drug sensitivity score (S1507-2 [17])	drug sensitivity score [18]	drug sensitivity score [19]	drug sensitivity score (HS-PSS [20])	drug sensitivity score (ST8814 [21])	drug sensitivity score (STS26T [22])	drug sensitivity score (S1507-2 [23])	drug sensitivity score [24]
C=C(c1ccc(C(=O)O)cc1)c1cc2c(cc1C)C(C)(C)CCC2(C)C [Bexarotene] (max concentration tested 10000 nM)	11.7	-11.5	-1.34	-9.52 ± 9.1	4.76	5.83	-8.14	22.7 ± 3.6	-0.128	2.52	0	0	0	0	0	0	2.77 ± 0.55	0	0	0	0	0	1.23 ± 0.75	0
CO[C@H]1C[C@@H]2CC[C@@H](C)[C@@](O)(O2)C(=O)C(=O)N2CCCC[C@H]2C(=O)O[C@H]([C@H](C)C[C@@H]2CC[C@@H](O)[C@H](OC)C2)CC(=O)[C@H](C)/C=C(\C)[C@@H](O)[C@@H](OC)C(=O)[C@H](C)C[C@H](C)/C=C/C=C/C=C/1C [Sirolimus] (max concentration tested 100 nM)	24.6	32.9	45.1	1.96 ± 4.9	29.1	14.7	27.9	5.52 ± 9	23.2	0.673	4.11	6.14	0	3.47	0.411	1.7	0.128 ± 0.18	1.62	0	0	0	0	0.0997 ± 0.14	0
CC/C(=C(\c1ccc(O)cc1)c1ccc(OCCN(C)C)cc1)c1ccccc1 [4-hydroxytamoxifen] (max concentration tested 10000 nM)	72.5	88.4	32.7	46.1 ± 9.7	93.4	75.7	53	55.9 ± 8.7	82.5	5.78	6.38	2.94	3.82 ± 1.3	7.34	5.33	3.45	5.41 ± 1.5	5.65	1.81	3.7	4.88	1.86	0.592 ± 0.84	7.53
Cc1ccc(NC(=O)c2ccc(CN3CCN(C)CC3)cc2)cc1Nc1nc(-c2cccnc2)cs1 [Masitinib] (max concentration tested 10000 nM)	65.1	83.9	90.8	71.4 ± 5.9	97.2	87.5	80.8	96.25 ± 0.36	54.6	3.32	7.12	6.54	3.78 ± 0.14	5.27	4.79	4.23	7.556 ± 0.038	3.5	2.96	1.06	4.31	3.63	4.73 ± 0.42	0.804
CC(O)(CS(=O)(=O)c1ccc(F)cc1)C(=O)Nc1ccc(C#N)c(C(F)(F)F)c1 (configuration not stated) [Bicalutamide] (max concentration tested 10000 nM)	11.9	14.1	-3.03	7.3 ± 7.9	12.8	7.2	12	0.808 ± 0.64	-3.88	0.0562	0.45	0	0.149 ± 0.21	0.01	0	0.0466	0	0	0	0	0	0	0	0
N#Cc1ccc(COC[C@H]2O[C@@H](n3c(NCc4ccc(Cl)c(Cl)c4)nc4c(N)ncnc43)[C@H](O)[C@@H]2O)cc1 (max concentration tested 10000 nM)	41.6	21.7	28.8	11.3 ± 7.2	9.8	8.16	30.7	7.48 ± 0.46	44.2	5.32	0.47	2.63	0.314 ± 0.44	0	0	3.06	0	8	0	0	0	0.0103	0	0
O=C1NC(=O)[C@@H](c2cn3c4c(cccc24)CCC3)[C@@H]1c1c[nH]c2ccccc12 [Tivantinib] (max concentration tested 1000 nM)	62.9	36.1	78.2	98.43 ± 0.21	82.9	93	98.2	80 ± 5.9	60.3	3.89	2.27	6.48	5.15 ± 0.31	6	5	6.92	5.33 ± 1.5	4.03	1.43	0.01	4.59	7.73	4.49 ± 1.2	2.53
O=C(/C=C/c1cccc(S(=O)(=O)Nc2ccccc2)c1)NO [Belinostat] (max concentration tested 10000 nM)	102	88.1	101	102.5 ± 0.29	101	102	98.9	104 ± 1.3	101	15.4	10.8	18.1	12.7 ± 0.28	13.7	17.2	13	16.6 ± 0.76	13.2	8.65	4.69	12.4	12.7	12.2 ± 2	8.85
Cc1cn(-c2cc(NC(=O)c3ccc(C)c(Nc4nccc(-c5cccnc5)n4)c3)cc(C(F)(F)F)c2)cn1 [Nilotinib] (max concentration tested 10000 nM)	0.687	23.5	20.6	-3.63 ± 4.4	15.4	-12.2	-1.55	2.99 ± 0.13	2.6	0	1.65	1.13	0	3.88	0	0	0	0	0	0	0	0	0	0.117
Sc1ncnc2nc[nH]c12 [Mercaptopurine] (max concentration tested 10000 nM)	-2.23	18.8	13.2	62.5 ± 20	59.9	43.7	74.5	7.52 ± 1.2	3.85	0	1.06	0.53	5.81 ± 1.6	7.89	10.2	7.5	0	0	0	0	0	0.135	0	0
Nc1nccc(-c2c(-c3ccc(F)cc3)ncn2C2CCCCC2)n1 (max concentration tested 10000 nM)	9.97	21.5	33.7	-4.31 ± 12	29.1	5.9	1.02	2.64 ± 7.6	-0.333	0	0.55	3.26	0	0.99	0	0	0	0	0	0	0	0	0	0
Cc1[nH]c2ccccc2c1CCNCc1ccc(/C=C/C(=O)NO)cc1 [Panobinostat] (max concentration tested 1000 nM)	101	93.9	99.9	103.7 ± 0.37	101	101	98	104.5 ± 0.79	101	19.5	14.1	23.7	22.7 ± 0.67	19.1	22	16.8	24.1 ± 0.61	16.7	10.5	9.17	16.1	11.1	20.6 ± 0.84	10.7
CCn1c(-c2nonc2N)nc2cnc(Oc3cccc(NC(=O)c4ccc(OCCN5CCOCC5)cc4)c3)cc21 (max concentration tested 10000 nM)	70.6	47.1	49.8	43.6 ± 3.2	58	34.9	50.7	36.1 ± 2.2	71.3	16.9	4.2	6.84	3.9 ± 0.086	6.03	2.57	5.65	3.11 ± 0.81	18.1	1.62	0	0	5.6	2.06 ± 2.4	0.268

From the supplement of paper PMC5579334
